Paper PMC12454639, “Direct disassembly of α-syn preformed fibrils into α-syn monomers by an all-D-peptide” (NPJ Parkinson's Disease, 2025)

Columns and labels:
[1] = tested on: PC12 cells; format: cell-based; conditions: 15 µM peptide with 30 nM PFF; n = 4
Protocol: PC12 cells (Leibniz Institute DSMZ, GE) were cultivated on collagen A-coated (Biochrom GmbH, GE) tissue culture flasks in RPMI 1640 medium supplemented with 5% fetal calf serum and 10% horse serum in a 95% humidified atmosphere with 5% CO2 at 37 °C. 10,000 cells per well in a volume of 100 µl were seeded on collagen A-coated 96-well plates (Thermo Fisher Scientific, USA) and were incubated for 24 h at 37 °C and 300 rpm in a thermo cycler. […] In addition, 15 µM of the peptides alone, cell media, buffer without peptides and 0.1% Triton X-100 (cytotoxic compound) served as controls. After further incubation in a 95% humidified atmosphere with 5% CO2 at 37 °C for 24 h, cell viability was measured using the Cell Proliferation Kit I (MTT) (Roche Applied Science, CH) according to the manufacturer’s protocol. The MTT formazan product was quantified by measuring the absorbance at 570 nm corrected by subtraction of the absorbance at 660 nm in a FLUOStar Optima plate reader (BMG Labtech, GE). All results were normalized to untreated cells grown in medium only. Test on significance was performed using one-way ANOVA with Bonferroni post hoc analysis (OriginPro 2020, OriginLab, USA; n = 4).
Test on significance was performed using one-way ANOVA with Bonferroni post hoc analysis: * […], *** p ≤ 0.01. Mean data are shown with ±SD (n = 4). While the cell viability was reduced by 50 % in the presence of 30 nM soluble small α-syn PFF alone, no toxic effect of the compounds on PC12 was observed. […] Thus, similar cell viability saving effects were found for SVD-1a using a 30-fold lower concentration.

[2] = tested on: small α-syn PFF seeds; experiment: Seeded ThT aggregation assay; format: biochemical; conditions: discussion statement
Protocol: The Thioflavin T (ThT) assay is commonly used for the visualization of α-syn fibrilization, since the dye ThT is able to bind to the amyloidogenic cross-β-sheet proportions of fibril structures. Recombinant α-syn was thawed on ice and centrifuged for 30 min at 21,000 × g and 4 °C. The concentration of the supernatant was determined as described previously. Lyophilized D-peptides were thawed at RT for 1 h and dissolved in 500 µl PBS pH 7.4. After centrifugation for 30 min at 21,000 × g the supernatant concentration was determined by UV–vis using the corresponding extinction coefficient at A280. All ThT assay experiments were performed at 37 °C with 15 µM ThT and 0.05% sodium azide (w/v) in PBS pH 7.4 if not otherwise stated. ThT fluorescence was monitored with bottom optics at λex = 448 nm and λem = 482 nm in a fluorescence plate reader with orbital averaging on 3 mm (Clariostar or Polarstar Optima, BMG labtech, GE). Prior to measurement start, 120 µl sample solution was transferred to a non-binding 96-half area well plate with transparent flat bottom (Corning, USA). One borosilicate glass bead (d = 3.0 mm, Hilgenberg, GE) was added to each well for all de novo aggregation assays. For seeded aggregation assays, no bead was used, and samples were incubated under quiescent conditions. Wells that surrounded the sample wells were filled with the same volume of buffer to improve heat distribution. Experiments were performed with five replicates (n = 5) if not otherwise stated.
ThT assay was used for different purposes. […] Lag-time and t½ were calculated as described previously. […] Measurements were taken every 5 min (n = 3).
small α-syn PFF seeds were prepared as described previously with some modifications. First, insoluble PFF were produced by incubation of 300 µM recombinant α-syn in a LoBind reaction tube (Eppendorf GmbH, GE) with one borosilicate glass bead (d = 3.0 mm; Hilgenberg, DE) in 20 mM NaPi, pH 7.0, 150 mM NaCl, 0.05% (w/v) sodium azide for one week at 37 °C. The insoluble PFF were harvested by ultracentrifugation at 100,000 × g for 30 min at 4 °C, and the pellet was washed several times with 20 mM NaPi, pH 7.0, 150 mM NaCl. The monomer equivalent concentration was determined by measuring the α-syn concentration in the supernatant after the first centrifugation and subtracting it from the start concentration for fibrilization. […]
ThT fluorescence progression was measured in a 96-well non-binding half-area plate (Corning, USA) with a FLUOStar platereader (BMG labtech, GE) at λex = 448 nm and λem = 482 nm. […] 10 µM α-syn monomer was incubated with 5, 10 and 20 µM peptide at 37 °C, adding one borosilicate glass bead per well (d = 3.0 mm, Hilgenberg, GE) with continuous orbital shaking at 300 rpm in between reads. […]

[3] = tested on: monomeric α-syn; experiment: Affinity of negative-control peptide to monomeric α-syn (method not given); format: binding; conditions: negative-control peptide kgvgnleyqlwalegk-NH2; method not stated
[4] = tested on: α-synA53T–YFP (HEK293T cells); experiment: Seeded intracellular aggregation in α-synA53T–YFP cells; format: cell-based, human; conditions: day 3
From the text: Fig. 5 SVD-1a inhibits seeded α-syn aggregation in cells. To validate the inhibitory effect of SVD-1a in cells, we used the α-synA53T–YFP cell system, which stably expresses human α-syn with the familial A53T mutation fused to YFP in HEK293T cells and enables fluorescence-based detection of aggregates that show up as highly fluorescent spots within the cells, clearly above background, intracellularly after seeding with small α-syn PFF seeds. In order to avoid interference of the peptide with the uptake of small α-syn PFF seeds, we performed a two-step transfection starting with a first transfection of the peptide and a second transfection with PFFs. […] To quantify the number of cells with aggregates in our images and to avoid experimental bias, we used a fully automated algorithm for image analysis. […] One asterisk denotes p values < 0.05 and three asterisks a p value < 0.001. Error bars indicate standard deviation. […] Treatment with increasing concentrations of SVD-1a, here imaged at 25 µM, led to a concentration-dependent reduction in the number of cells with aggregates (H-J). Panels B, E, and H show nuclei stained with Hoechst 33342. Panels C, F, and I show αSynA53T–YFP fluorescence. Panels D, G, and J show merged images. The scale bar in J represents 100 µm and applies to all panels. The viability of the cells was not reduced by transfection with seeds or in SVD-1a, as shown in Supplementary Fig. 15. Confirmation that highly fluorescent aggregates contain α-syn is shown in Supplementary Fig. 14 by co-immunostaining with syn-211 antibody, anti-α-syn (phospho S129) antibody and 5G4 antibody.
A construct encoding full-length A53T-mutated human α-syn fused with YFP at the C-terminus was synthesized and introduced into the pMK–RQ expression vector (GeneArt; Thermo Fisher Scientific, USA). The α-synA53T–YFP construct was subcloned into the pIRESpuro3 vector (Clontech; Takara Bio, JPN) using NheI (5′) and NotI (3′) restriction sites. HEK293T cells (American Type Culture Collection) were cultured in high-glucose Dulbecco’s modified Eagle’s medium (DMEM; Sigma-Aldrich, USA) supplemented with 10% fetal calf serum (Sigma-Aldrich, USA), and 50 units/ml penicillin as well as 50 μg/ml streptomycin (Sigma-Aldrich, USA). Cells were cultured in a humidified atmosphere of 5% CO2 at 37 °C. Cells plated in DMEM were transfected using Lipofectamine 2000 (Invitrogen; Thermo Fisher Scientific, USA). Stable cells were selected in DMEM containing 1 μg/ml puromycin (EMD Millipore, USA). Monoclonal lines were generated by fluorescence-activated cell sorting of a polyclonal cell population in 96-well plates using a MoFlo XDP cell sorter (Beckman Coulter, USA). Finally, the clonal cell line B5 was selected from among 24 clonal cell lines and is referred to as αSynA53T–YFP cells. Peptides were incubated with 1.5% Lipofectamine 2000 in OptiMEM for 2 h at room temperature. […] On day 3 the cells were imaged with an IN Cell Analyzer 6500HS System (Cytiva, USA) using the blue and green fluorescence channel, and analyzed using IN Carta Image Analysis Software (Cytiva, USA) after an algorithm was established to identify intracellular aggregates in living cells. For each condition, we used four wells and took 16 images per well, which were analyzed by a fully automated algorithm to avoid bias. […]

[5] = tested on: α-synA53T–YFP cells (HEK293T)

Substance: ihyawtphtkhmqewe-NH2 [SVD-1_scrambled, reference compound]
- cell viability saving effect [1]: Slight increase of cell viability saving effect

Substance: ihyawtphtrhlqewerrrrr-NH2 [SVD-1_scrambled+5r, reference compound]
- effect of control peptide relative to SVD-1 in seeded assay [2]: improved effects compared to the parental sequence SVD-1 in the seeded assay

Substance: kgvgnleyqlwalegk-NH2 [negative-control peptide, reference compound]
- affinity to monomeric α-syn [3]: no affinity to monomeric α-syn
- aggregate-positive cells ([4]; 25 µM peptide, transfected, then 30 nM small α-syn PFF seeds): 85%
- inhibition of intracellular seeded α-syn aggregation ([4]; peptide transfection, then 30 nM PFF seeds): not
- cell viability, PFF-seeded α-synA53T–YFP cells [5]: did not induce significantly different luminescence in comparison to unseeded cells or seeded cells without peptide treatment
